Data set [1] deals with T1, human CB2 (hCB2) receptor (Homo sapiens, UniProt P34972).
T1 construct: expressed in transfected cells; host or cells: CHO-K1
Briefly: Inhibition of forskolin-activated cAMP production upon activation of human CB2 receptor (HTRF). In kind it is cell-based. The note with it: CHO-K1 cells stably transfected with hCB2; 15 μM forskolin; pEC50=-log(EC50); relative to WIN55212-2. How it is done:
D. Pharmacological Examples D.1 Inhibition of cAMP in Response to Activation of the Human CB2 Receptors
Functional activity of the test compounds was assessed by measuring their potency to inhibit forskolin-activated cAMP production upon activation of human CB2 (hCB2) receptor through homogenous time resolved fluorescence (HTRF) assays.
CHO-K1 cells stably transfected with hCB2 were grown up to 80-90% confluence in T175 Falcon flasks in DMEM/NUT MIX F-12 culture medium complemented with 2% Solution A (5.10^6 IU/l penicillin G, 5 g/l streptomycin sulphate, 5.5 g/l pyruvate, 14.6 g/l L-glutamine, 1M NaOH) and 10% foetal calf serum. Before the experiments, medium was removed, cells were washed with PBS/EDTA (140 mM NaCl, 1 mM Na2-EDTA, 8 mM Na2HPO4.2H2O, 8.5 mM KH2PO4, 2.7 mM KCl, 21 mM glucose), resuspended in stimulation buffer (HBSS 1×, IBMX 1 mM, Hepes 5 mM, MgCl2 10 mM, BSA 0.1%, pH 7.4). Cells were diluted to a concentration of 10^6 cells/ml for hCB2 experiments. Assays were performed using the cAMP Dynamic HTRF kit (CIS bio international, France) according to the recommendations of the manufacturer.
For CB2, each well of a 384 flat bottom black polystyrene assay plate (Costar) was filled with 10 μl stimulation buffer containing 15 μM forskolin and either test compound (in 3% DMSO), 3% DMSO or 10 μM Win55212-2 (in 3% DMSO). Then, 20 μl of the diluted hCB2-CHO-K1 cells was added (20,000 cells/well). After 30 minutes incubation in dark at room temperature, 10 μl cAMP-XL665 and 10 μl anti-cAMP cryptate (both at a final dilution of 1/100) was added to the cells.
After equilibration of the reaction mixtures for 1 to 24 hours in dark at room temperature, fluorescence was measured at 665 nm and 620 nm using a Discovery microplate fluorescence counter (Perkin Elmer), and the signal ratio of 665 nm/620 nm was calculated. The signal ratios of the test compounds were expressed relative to the signal ratios of the DMSO control (maximal signal ratio, no inhibition of cAMP) and WIN55212-2 for hCB2, respectively (minimal signal ratio, maximal inhibition of cAMP). From the dose response curves generated for each test compound, the dose at which 50% of the maximal inhibition of cAMP level is observed (EC50, expressed in the Table as pEC50=−log (EC50) values) and the level of inhibition reached with 10 μM of the test compound compared to WIN55212-2 (for hCB2) was calculated.
In general terms: Changes in cAMP serve as a functional read-out for many G protein-coupled receptors.

T1 sequence (P34972 whole entry): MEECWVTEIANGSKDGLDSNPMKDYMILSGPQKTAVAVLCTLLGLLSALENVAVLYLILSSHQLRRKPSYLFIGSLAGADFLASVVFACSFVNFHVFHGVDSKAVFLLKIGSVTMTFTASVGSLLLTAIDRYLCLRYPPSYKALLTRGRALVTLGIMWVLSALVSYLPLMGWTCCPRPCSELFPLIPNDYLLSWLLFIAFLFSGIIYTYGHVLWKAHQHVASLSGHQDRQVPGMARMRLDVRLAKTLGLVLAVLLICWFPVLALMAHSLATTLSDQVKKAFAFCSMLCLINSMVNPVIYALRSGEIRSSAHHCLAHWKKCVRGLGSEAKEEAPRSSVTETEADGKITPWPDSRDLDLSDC

Take `CC(=O)N1CCC(Cn2c(C(C)(C)C)nc3cc(S(=O)(=O)c4ccccn4)ccc32)CC1` [compound 53]: the melting point (as a rule, the temperature of the solid-liquid transition) is 205 °C. The EC50 (as a rule, the midpoint of the concentration-response curve) in data set [1] was 2.95 nM. The corresponding values for `CC(=O)N1CCC(Cn2c(C(C)(C)C)nc3cc(S(=O)(=O)Cc4ccc(F)cc4)ccc32)CC1` [compound 25] are > 100 °C and 12.3 nM.

Turning to `CC(=O)N1CCC(Cn2c(C(C)(C)C)nc3cc(S(=O)(=O)c4ccc(C(F)(F)F)cc4)ccc32)CC1` [compound 88], the melting point came out at 189 °C. The compound also had an EC50 in data set [1] of 0.537 nM. For `CC(=O)N1CCC(Cn2c(C(C)(C)C)nc3cc(S(=O)(=O)CC4CCC4)ccc32)CC1` [compound 43] the same measures were 155 °C and 8.71 nM. The corresponding values for `CCS(=O)(=O)c1ccc2c(c1)nc(C(C)(C)C)n2CC1CCN(C=O)CC1` [compound 28] are 188 to 190 °C and 23.4 nM. As to `CC(=O)N1CCC(Cn2c(C(C)(C)C)nc3cc(S(=O)(=O)CCCO)ccc32)CC1` [compound 19], the “CB2 pEC50” value in data set [1] is on record as 6.84. In the case of `CC(=O)N1CCC(Cn2c(C(C)(C)C)nc3cc(Sc4ccccc4C#N)ccc32)CC1` [compound 93], the EC50 in data set [1] is ~0.24 nM. Same read-out and setting: next, `CC(=O)N1CCC(Cn2c(C(C)(C)C)nc3cc(S(=O)(=O)c4cccc(N5CCOCC5)c4)ccc32)CC1` [compound 116]: ~44.7 nM. The same measure, in the same setting: under `CC(=O)N1CCC(Cn2c(C(C)(C)C)nc3cc(S(=O)(=O)c4ccccc4C(F)(F)F)ccc32)CC1` [compound 113] stands ~2.51 nM. On the same count and under the same terms, under `CC(=O)N1CCC(Cn2c(C(C)(C)C)nc3cc(S(=O)(=O)c4ccc(C(F)(F)F)cc4Cl)ccc32)CC1` [compound 107] stands ~7.41 nM; under `COc1cccc(S(=O)(=O)c2ccc3c(c2)nc(C(C)(C)C)n3CC2CCN(C(C)=O)CC2)c1OC` [compound 108], ~13.8 nM. Regarding `COc1cccc(OC)c1S(=O)(=O)c1ccc2c(c1)nc(C(C)(C)C)n2CC1CCN(C(C)=O)CC1` [compound 102], the concentration for a half-maximal effect (EC50) in data set [1] is ~3.47 nM. Same read-out and setting: under `CC(C)(C)c1nc2cc(SCC3CC3)ccc2n1CC1CCN(C=O)CC1` [compound 37] stands 1.32 nM; under `CC(=O)N1CCC(Cn2c(C(C)(C)C)nc3cc(S(=O)(=O)c4cccc(C#N)c4C)ccc32)CC1` [compound 112], ~16.6 nM.

In data set [1], `CCC(CC)S(=O)(=O)c1ccc2c(c1)nc(C(C)(C)C)n2CC1CCN(C(C)=O)CC1` [compound 61] gave a 50% effective concentration (EC50) of 2.51 nM. In turn, `CCS(=O)(=O)c1ccc2c(c1)nc(C(C)C)n2CC1CCN(C(C)=O)CC1` [compound 47] showed an EC50 in data set [1] of 955 nM. On the same count and under the same terms, under `CC(=O)N1CCC(Cn2c(C(C)(C)C)nc3cc(S(=O)(=O)c4c(F)cc(F)cc4F)ccc32)CC1` [compound 114] stands ~4.17 nM. Same read-out and setting: under `COc1ccc(CSc2ccc3c(c2)nc(C(C)(C)C)n3CC2CCN(C(C)=O)CC2)cc1` [compound 11] stands 20.4 nM; under `CC(=O)N1CCC(Cn2c(C(C)(C)C)nc3cc(S(=O)(=O)c4cccc(OC(C)C)c4)ccc32)CC1` [compound 100], 2.34 nM; under `CC(=O)N1CCC(Cn2c(C(C)(C)C)nc3cc(S(=O)(=O)C(C)C)ccc32)CC1` [compound 64], 12.9 nM.

`CC(=O)N1CCC(Cn2c(C(C)(C)C)nc3cc(Sc4ccccn4)ccc32)CC1` [compound 50] had an EC50 in data set [1] of 7.76 nM. Same read-out and setting: next, `CC(=O)N1CCC(Cn2c(C(C)(C)C)nc3cc(S(=O)(=O)c4c(C)cccc4C)ccc32)CC1` [compound 115]: ~8.32 nM. Same read-out and setting: next, `CC(=O)N1CCC(Cn2c(C(C)(C)C)nc3cc(SCCCO)ccc32)CC1` [compound 13]: 8.71 nM. With `CC(=O)N1CCC(Cn2c(C(C)(C)C)nc3cc(Sc4c(Cl)cccc4Cl)ccc32)CC1` [compound 57], in data set [1], a half-maximal response (EC50) required 1.58 nM. This EC50 lies about 5.5-fold lower than the previous one.

As for `CC(=O)N1CCC(Cn2c(C(C)(C)C)nc3cc(S(=O)(=O)c4ccc(OC(F)(F)F)cc4)ccc32)CC1` [compound 104], in data set [1], the EC50 is ~23.4 nM.

In the case of `CC(=O)N1CCC(Cn2c(C(C)(C)C)nc3cc(S(=O)(=O)c4cccc(C(F)(F)F)c4)ccc32)CC1` [compound 92], the EC50 in data set [1] is 4.07 nM. For `COCCS(=O)(=O)c1ccc2c(c1)nc(C(C)(C)C)n2CC1CCN(C(C)=O)CC1` [compound 20], the “CB2 pEC50” value in data set [1] turned out to be 7.59. `CC(=O)Nc1ccc(CS(=O)(=O)c2ccc3c(c2)nc(C(C)(C)C)n3CC2CCN(C(C)=O)CC2)cc1` [compound 79] gave a 50% effective concentration (EC50) in data set [1] of 5.89 nM. Turning to `CC(=O)N1CCC(Cn2c(C(C)(C)C)nc3cc(S(=O)(=O)c4ccccc4C#N)ccc32)CC1` [compound 94], the EC50 in data set [1] is ~3.31 nM. Still for that read-out and setting: under `CC(=O)N1CCC(Cn2c(C(C)(C)C)nc3cc(Sc4ccncc4)ccc32)CC1` [compound 33] stands 4.47 nM. Same read-out and setting: under `CC(C)S(=O)(=O)c1ccc2c(c1)nc(C(C)(C)C)n2CC1CCS(=O)(=O)CC1` [compound 30] stands 50.1 nM; under `CC(=O)N1CCC(Cn2c(C(C)(C)C)nc3cc(S(=O)(=O)CCCC(F)(F)F)ccc32)CC1` [compound 3], 15.5 nM; under `CC(=O)N1CCC(Cn2c(C(C)(C)C)nc3cc(Sc4cccnc4)ccc32)CC1` [compound 54], 2.29 nM.

With `CC(=O)N1CCC(Cn2c(C(C)(C)C)nc3cc(S(=O)(=O)c4ccc(N)c(Cl)c4)ccc32)CC1` [compound 110], the EC50 in data set [1] is ~10 nM.

As to `CC(=O)N1CCC(Cn2c(C(C)(C)C)nc3cc(S(=O)(=O)C4CCCC4)ccc32)CC1` [compound 35], the “CB2 pEC50” value in data set [1] came out at 8.49.

Regarding `CCCC(CCC)Sc1ccc2c(c1)nc(C(C)(C)C)n2CC1CCN(C(C)=O)CC1` [compound 65], the EC50 in data set [1] was 1.74 nM. The same measure, in the same setting: next, `CC(=O)N1CCC(Cn2c(C(C)(C)C)nc3cc(S(=O)(=O)CCCC#N)ccc32)CC1` [compound 10]: 21.9 nM; `COCCCOc1cccc(S(=O)(=O)c2ccc3c(c2)nc(C(C)(C)C)n3CC2CCN(C(C)=O)CC2)c1` [compound 86]: 5.37 nM. Still for that read-out and setting: next, `CC(=O)N1CCC(Cn2c(C(C)(C)C)nc3cc(S(=O)(=O)Cc4ccccc4)ccc32)CC1` [Co. No. 73]: 2.34 nM. On the same count and under the same terms, under `COc1ccccc1S(=O)(=O)c1ccc2c(c1)nc(C(C)(C)C)n2CC1CCN(C(C)=O)CC1` [compound 109] stands ~8.71 nM; under `CC(=O)N1CCC(Cn2c(C(C)(C)C)nc3cc(S(=O)(=O)c4cccc(N(C)C)c4)ccc32)CC1` [compound 98], 4.57 nM; under `CC(=O)N1CCC(Cn2c(C(C)(C)C)nc3cc(SCc4ccccc4)ccc32)CC1` [compound 72], 12.9 nM.

Regarding `CC(=O)N1CCC(Cn2c(C(C)(C)C)nc3cc(Sc4cccc(N(C)C)c4)ccc32)CC1` [compound 97], it took 4.79 nM to reach a half-maximal effect in data set [1] (EC50).

`CC(=O)N1CCC(Cn2c(C(C)(C)C)nc3cc(SCC4CCC4)ccc32)CC1` [compound 41] had a concentration giving a half-maximal response (EC50) in data set [1] of 1.17 nM.

With `COc1ccc(S(=O)(=O)c2ccc3c(c2)nc(C(C)(C)C)n3CC2CCN(C(C)=O)CC2)c(OC)c1` [compound 106], the EC50 in data set [1] was ~22.9 nM.

For `CC(=O)N1CCC(Cn2c(C(C)(C)C)nc3cc(S(=O)(=O)C(C)C#N)ccc32)CC1` (centres unmarked) [compound 39], in data set [1], the EC50 was 7.08 nM. Same read-out and setting: under `CC(=O)N1CCC(Cn2c(C(C)(C)C)nc3cc(Sc4ccc(C#N)cc4)ccc32)CC1` [compound 18] stands 6.31 nM; under `CC(=O)N1CCC(Cn2c(C(C)(C)C)nc3cc(Sc4cccc(C(F)(F)F)c4)ccc32)CC1` [compound 91], ~0.832 nM.

Values taken from patent US8193369B2, “Benzimidazole cannabinoid agonists” (Janssen Pharmaceutica NV, priority 2007, dated 2012).
